Reference: PubChem BioAssay (NCI)
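Five concentrations, 48 hours, 96-well plates. TGI is the concentration that stops growth completely.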

What was measured:
Assay in all cases: inhibition of tumour cell growth, NCI panel, 48 h
SNB-75 CNS = test system: SNB-75 CNS
NCI-H226 lung = test system: NCI-H226 lung
MDA-N = test system: MDA-N
UACC-62 melanoma = test system: UACC-62 melanoma
MOLT-4 leukemia = test system: MOLT-4 leukemia
SN12C renal = test system: SN12C renal
OVCAR-3 ovarian = test system: OVCAR-3 ovarian
BT-549 breast = test system: BT-549 breast
ACHN renal = test system: ACHN renal
HCT-15 colon = test system: HCT-15 colon
HCC-2998 colon = test system: HCC-2998 colon
OVCAR-8 ovarian = test system: OVCAR-8 ovarian

SMILES	TGI (SNB-75 CNS)	TGI (NCI-H226 lung)	TGI (MDA-N)	TGI (UACC-62 melanoma)	TGI (MOLT-4 leukemia)	TGI (SN12C renal)	TGI (OVCAR-3 ovarian)	TGI (BT-549 breast)	TGI (ACHN renal)	TGI (HCT-15 colon)	TGI (HCC-2998 colon)	TGI (OVCAR-8 ovarian)
CCOc1ccc(NC(=O)/C(=N\NC(C)(C)C)C2C(=O)Nc3ccccc3S2=O)cc1 (stereo not given)	> 100 µM	> 100 µM	> 100 µM	> 100 µM	> 100 µM	> 100 µM	> 100 µM	> 100 µM	> 100 µM	> 100 µM	> 100 µM	> 100 µM
N#CC(C#N)=C(N)/C(C#N)=C/c1ccc2ccccc2n1	> 100 µM	> 100 µM	> 100 µM	45.9 µM	97.9 µM	> 100 µM	33.4 µM	91.1 µM	39.6 µM	80.1 µM	> 100 µM	> 100 µM
CCN(CC)CCCn1c(=O)c2ccccc2n2c3c(=O)n(C)c(=O)n(C)c3nc12	18.6 µM	14.3 µM	28 µM	24.1 µM	8.92 µM	18.6 µM	33.6 µM	17.6 µM	4.17 µM	25.4 µM	22 µM	23.4 µM
COc1cc(C)cc2c1c(=O)c1ccccc1n2C	99.4 µM	81.5 µM	> 100 µM	62.5 µM	> 100 µM	> 100 µM	> 100 µM	> 100 µM	> 100 µM	> 100 µM	> 100 µM	> 100 µM
C/C(=N\Nc1nc2ccccc2n1C)c1cnccn1	> 100 µM	> 100 µM	> 100 µM		> 100 µM	> 100 µM	2.75 µM	> 100 µM	> 100 µM	> 100 µM	> 100 µM	> 100 µM
CCOC(=O)Cc1csc2[n+]1C(=O)/C(=C/c1cccc(OC)c1O)S2	> 100 µM	> 100 µM	> 100 µM	> 100 µM	> 100 µM	> 100 µM	> 100 µM	48.9 µM	> 100 µM	> 100 µM	> 100 µM	> 100 µM
CC1(C)CC23CC(C)(C)c4cccc(c42)OCc2ccc4ccc5ccc(nc5c4n2)COc2cccc1c23	> 50 µM	> 50 µM	> 50 µM	> 50 µM	> 50 µM	> 50 µM	> 50 µM	> 50 µM	> 50 µM	> 50 µM	> 50 µM	> 50 µM
Cc1nc(C(N)=S)sc1C(/C=C/c1ccc(Cl)c(Cl)c1)=N/NC(C)(C)C	> 100 µM	> 100 µM	> 100 µM	> 100 µM	80.5 µM	> 100 µM		> 100 µM	> 100 µM	> 100 µM	> 100 µM	> 100 µM
C=C(C)CC1(O)C(=O)C(OCC)=C1OCC (stereo not given)	> 100 µM	> 100 µM	> 100 µM	> 100 µM	> 100 µM	> 100 µM	> 100 µM	> 100 µM	> 100 µM	> 100 µM		> 100 µM
